Patent publication US6207656A, “Vitamin D analogues and their neuronal effects” (Cephalon, Inc., priority 1998, dated 2001)
“Also recorded” adds a separate entry of the source.

How the values were obtained:
NGF mRNA = test: Induction of NGF mRNA expression in rats; type: in vivo, Sprague Dawley rats; conditions: 8 days (FIG. 1)
Experimental: Five hours after the last dose, the animals were sacrificed by decapitation. Each brain was quickly removed and chilled in ice-cold saline. The brain was cut into 2 mm thick coronal sections. Portions of the hippocampus, encompassing the CA1 region, and the medial septum were removed by punching 2 mm^3 sections using a calibrated tissue punch. Punched sections were immediately frozen on dry ice and then stored at -70° C. RNA was prepared from dissected tissue pieces.
Punches of tissue were homogenized in […] RNAzolB™ (Bioteex Laboratories, Houston, Tex.) using a homogenizer (Tekmar, Germany) until fully homogenized and then 250 μl RNAzilB™ was added. Typically, punches from the corresponding regions of brains of 2 to 3 animals were combined together. RNA was prepared as recommended by the manufacturer (Biotecx Laboratories). Following isopropanol precipitation, RNA was reprecipitated with ethanol and finally resuspended in 25-50 μL of water. Concentration of RNA was measured spectrophotometrically and the quality of RNA was visualized on a nondenaturing agarose gel. Equal amounts of RNA, usually 1-2 μg, were reverse transcribed using Superscript II™ (Gibco BRL), as recommended by the manufacturer. The assay was terminated by incubation at 95° C. 1 min. at 55-60° C. (depending on the primer set) and 2 min. at 72° C. […] After the assay, samples were electrophoresed on 5% nondenaturing acrylamide gels. Gels were dried and the resulting labeled bands were visualized on a phosphorimager (Storm 840, Molecular Dynamics, Sunnyvale, Calif.). The following primers were used: […]
Nerve Growth Factor (NGF). Primers were designed against the rat sequence.

NT-3 mRNA = test: Induction of NT-3 mRNA expression in rats; type: in vivo, Sprague Dawley rats; conditions: 0.3, 1.0 and 3.0 μg/kg oral, 8 days; hippocampus (FIG. 1)
Experimental: Young adult male Sprague Dawley rats (250-350 g) were administered Compound (A), Compound (E), or a vehicle (80% propylene glycol (human formulation grade; Spectrum Quality Products, Inc., Gardena, Calif., catalog #PR130-55003) and 20% phosphate buffer, pH 9.2) at doses ranging from 0.1 to 5.5 μg/kg daily by oral gavage for eight days. Five hours after the last dose, the animals were sacrificed by decapitation. Each brain was quickly removed and chilled in ice-cold saline. The brain was cut into 2 mm thick coronal sections. Portions of the hippocampus, encompassing the CA1 region, and the medial septum were removed by punching 2 mm^3 sections using a calibrated tissue punch. Punched sections were immediately frozen on dry ice and then stored at -70° C. RNA was prepared from dissected tissue pieces.
Punches of tissue were homogenized in […] RNAzolB™ (Bioteex Laboratories, Houston, Tex.) using a homogenizer (Tekmar, Germany) until fully homogenized and then 250 μl RNAzilB™ was added. Typically, punches from the corresponding regions of brains of 2 to 3 animals were combined together. RNA was prepared as recommended by the manufacturer (Biotecx Laboratories). […] Concentration of RNA was measured spectrophotometrically and the quality of RNA was visualized on a nondenaturing agarose gel. […]

[1] = Serum calcium / hypercalcemia in rats (2 weeks dosing, 28-day toxicology); type: in vivo, Sprague Dawley rats
[2] = system: rats having bilateral lesions of the fimbria-fornix; test: Locomotor activity (hyperactivity) after bilateral fimbria-fornix lesion; type: in vivo, rat
Experimental: To determine whether low calcemic doses of vitamin D3 analogs would improve lesion-induced behavioral deficits, Compound (A) (0.1 and 1.0 μg/kg/day) was administered orally once a day (26 days) to rats having bilateral lesions of the fimbria-fornix. Bilateral lesions of the fimbria-fornix cause rats to become hyperactive. To test for hyperactivity, rats were placed in a box marked with squares, where it was observed how many squares the rats entered in a five minute period.

[3] = system: acrylamide-induced peripheral neuropathy in rats; test: Acrylamide-induced peripheral neuropathy, landing foot spread; type: in vivo, rat
Experimental: Peripheral neuropathy was induced in rats by the administration of the neurotoxin acrylamide, 50 mg/kg, IP, 3×/week. The acrylamide treatment occurred during the first three weeks of the experiment. After acrylamide was discontinued, the animals were allowed to recover for an additional 3-5 weeks. The ability of Compound (A) or Compound (B) to either slow the onset of peripheral neuropathy, reduce the severity of the peripheral neuropathy or enhance the recovery from peripheral neuropathy was determined. The compounds were administered either orally (Compound (A)) or via subcutaneous Alzet mini-pumps (I month model)(Compounds (A) and (B)) beginning 3 days prior to the first dose of acrylamide. Compound (A) was administered orally at doses of 0.3, 1.0 and 3.0 μg/kg/day and by mini-pump at doses of 10, 55, 100, 330 and 550 ng/day. Compound (B) was administered by mini-pump at doses of 10, 33, 100, 330 and 1000 ng/day. These dose ranges were selected to limit toxicity and to bracket the dose range used in fimbria fornix lesion experiments. The mini-pumps were replaced at the end of the fourth week so that the test compound was on board for the duration of the experiment. In FIG. 11B, the data from FIG. 11A was averaged.

With C=C1/C(=C\C=C2/CCC[C@]3(C)[C@@H]([C@@H](C)[C@@H](C#CCC(O)(CC)CC)OCC)CC[C@@H]23)C[C@@H](O)C[C@@H]1O [Compound (A), 1(S),3(R)-dihydroxy-20(R)-(1-ethoxy-5-ethyl-5-hydroxy-2-heptyn-1-yl)-9,10-seco-pregna-5(Z),7(E),10(19)-triene] the “production of NGF mRNA” value (NGF mRNA; 0.3 μg/kg oral) was “did not facilitate the production of NGF mRNA”, the “production of NGF mRNA” value (NGF mRNA; 1.0 and 3.0 μg/kg oral) was “facilitated the production of NGF mRNA” and the “production of NT-3 mRNA” value (NT-3 mRNA) was “facilitated the production of NRT-like mRNA, GDNF mRNA, NT-3 mRNA”. For the same compound, the serum calcium ([1]; 1.0 μg/kg, after 2 weeks of dosing) was “did not increase serum calcium”, the “calcemic classification of dose” value ([1]; 1.0 μg/kg, considered in toto) was “hypercalcemic dose when considered in toto” and the “hypercalcemia, 28-day toxicology studies” value ([1]; 1 μg/kg, female vs male Sprague Dawley rats, data not shown) was “hypercalcemic to female, but not male, Sprague Dawley rats”. The hypercalcemia ([1]; 3.0 μg/kg) was “hypercalcemic to the animals”, the “locomotor activity (squares entered per 5 minutes)” value ([2]; 1.0 μg/kg/day oral, 26 days) was “reduced locomotor activity” and the “locomotor activity caused by fimbria fornix lesions” value ([2]; FIG. 10 legend, oral) was “reduces locomotor activity”. For the same compound, the “development of peripheral neuropathy” value ([3]; continuously pumped (mini-pump)) was “did not prevent the development of the acrylamide-induced peripheral neuropathy”, the “recovery from peripheral neuropathy” value ([3]; mini-pump) was “improved recovery; also recorded: an effect upon the recovery from the lesion was apparent” and the landing foot spread ([3]; mini-pump, recovery period) was “effective in reducing landing foot spread, but only during the recovery period; also recorded: decreased landing foot spread during the recovery period”. For the same compound, the “development of peripheral neuropathy” value ([3]; oral) was “prevented the development of acrylamide-induced peripheral neuropathy”, the “severity of neuropathy and functional recovery” value ([3]; oral) was “dose-dependent effects on both the severity of the acrylamide-induced peripheral neuropathy as well as the ability of the animals to functionally recover from the lesion” and the landing foot spread ([3]; oral 3.0 μg/kg/day) was “statistically significant decrease in landing foot spread”. For the same compound, the “time course of decrease in landing foot spread” value ([3]; oral 3.0 μg/kg/day, onset days 1-24, recovery days 24-42) was “occurred during the onset of the lesion (days 1-24) and were sustained through the recovery phase” and the landing foot spread ([3]; oral, FIGS. 11A-11C legend) was “decreases landing foot spread”.
